Results on 21 compounds are retold here after ChEMBL document CHEMBL3608217, “Discovery of novel bridged tetrahydronaphthalene derivatives as potent T/L-type calcium channel blockers” (Bioorg Med Chem Lett, 2015).

The target in data set [1] is Voltage-dependent T-type calcium channel subunit alpha-1H (Homo sapiens, UniProt O95180). Description: Inhibition of recombinant Cav3.2 channel (unknown origin) expressed in HEK293 cells assessed as effect on calcium flux incubated for 3 mins by FLIPR assay. The format is cell-based. On the technique in general: Calcium flux is commonly read through the fluorescence of an indicator in the cells.
Sequence of Voltage-dependent T-type calcium channel subunit alpha-1H (O95180 whole entry): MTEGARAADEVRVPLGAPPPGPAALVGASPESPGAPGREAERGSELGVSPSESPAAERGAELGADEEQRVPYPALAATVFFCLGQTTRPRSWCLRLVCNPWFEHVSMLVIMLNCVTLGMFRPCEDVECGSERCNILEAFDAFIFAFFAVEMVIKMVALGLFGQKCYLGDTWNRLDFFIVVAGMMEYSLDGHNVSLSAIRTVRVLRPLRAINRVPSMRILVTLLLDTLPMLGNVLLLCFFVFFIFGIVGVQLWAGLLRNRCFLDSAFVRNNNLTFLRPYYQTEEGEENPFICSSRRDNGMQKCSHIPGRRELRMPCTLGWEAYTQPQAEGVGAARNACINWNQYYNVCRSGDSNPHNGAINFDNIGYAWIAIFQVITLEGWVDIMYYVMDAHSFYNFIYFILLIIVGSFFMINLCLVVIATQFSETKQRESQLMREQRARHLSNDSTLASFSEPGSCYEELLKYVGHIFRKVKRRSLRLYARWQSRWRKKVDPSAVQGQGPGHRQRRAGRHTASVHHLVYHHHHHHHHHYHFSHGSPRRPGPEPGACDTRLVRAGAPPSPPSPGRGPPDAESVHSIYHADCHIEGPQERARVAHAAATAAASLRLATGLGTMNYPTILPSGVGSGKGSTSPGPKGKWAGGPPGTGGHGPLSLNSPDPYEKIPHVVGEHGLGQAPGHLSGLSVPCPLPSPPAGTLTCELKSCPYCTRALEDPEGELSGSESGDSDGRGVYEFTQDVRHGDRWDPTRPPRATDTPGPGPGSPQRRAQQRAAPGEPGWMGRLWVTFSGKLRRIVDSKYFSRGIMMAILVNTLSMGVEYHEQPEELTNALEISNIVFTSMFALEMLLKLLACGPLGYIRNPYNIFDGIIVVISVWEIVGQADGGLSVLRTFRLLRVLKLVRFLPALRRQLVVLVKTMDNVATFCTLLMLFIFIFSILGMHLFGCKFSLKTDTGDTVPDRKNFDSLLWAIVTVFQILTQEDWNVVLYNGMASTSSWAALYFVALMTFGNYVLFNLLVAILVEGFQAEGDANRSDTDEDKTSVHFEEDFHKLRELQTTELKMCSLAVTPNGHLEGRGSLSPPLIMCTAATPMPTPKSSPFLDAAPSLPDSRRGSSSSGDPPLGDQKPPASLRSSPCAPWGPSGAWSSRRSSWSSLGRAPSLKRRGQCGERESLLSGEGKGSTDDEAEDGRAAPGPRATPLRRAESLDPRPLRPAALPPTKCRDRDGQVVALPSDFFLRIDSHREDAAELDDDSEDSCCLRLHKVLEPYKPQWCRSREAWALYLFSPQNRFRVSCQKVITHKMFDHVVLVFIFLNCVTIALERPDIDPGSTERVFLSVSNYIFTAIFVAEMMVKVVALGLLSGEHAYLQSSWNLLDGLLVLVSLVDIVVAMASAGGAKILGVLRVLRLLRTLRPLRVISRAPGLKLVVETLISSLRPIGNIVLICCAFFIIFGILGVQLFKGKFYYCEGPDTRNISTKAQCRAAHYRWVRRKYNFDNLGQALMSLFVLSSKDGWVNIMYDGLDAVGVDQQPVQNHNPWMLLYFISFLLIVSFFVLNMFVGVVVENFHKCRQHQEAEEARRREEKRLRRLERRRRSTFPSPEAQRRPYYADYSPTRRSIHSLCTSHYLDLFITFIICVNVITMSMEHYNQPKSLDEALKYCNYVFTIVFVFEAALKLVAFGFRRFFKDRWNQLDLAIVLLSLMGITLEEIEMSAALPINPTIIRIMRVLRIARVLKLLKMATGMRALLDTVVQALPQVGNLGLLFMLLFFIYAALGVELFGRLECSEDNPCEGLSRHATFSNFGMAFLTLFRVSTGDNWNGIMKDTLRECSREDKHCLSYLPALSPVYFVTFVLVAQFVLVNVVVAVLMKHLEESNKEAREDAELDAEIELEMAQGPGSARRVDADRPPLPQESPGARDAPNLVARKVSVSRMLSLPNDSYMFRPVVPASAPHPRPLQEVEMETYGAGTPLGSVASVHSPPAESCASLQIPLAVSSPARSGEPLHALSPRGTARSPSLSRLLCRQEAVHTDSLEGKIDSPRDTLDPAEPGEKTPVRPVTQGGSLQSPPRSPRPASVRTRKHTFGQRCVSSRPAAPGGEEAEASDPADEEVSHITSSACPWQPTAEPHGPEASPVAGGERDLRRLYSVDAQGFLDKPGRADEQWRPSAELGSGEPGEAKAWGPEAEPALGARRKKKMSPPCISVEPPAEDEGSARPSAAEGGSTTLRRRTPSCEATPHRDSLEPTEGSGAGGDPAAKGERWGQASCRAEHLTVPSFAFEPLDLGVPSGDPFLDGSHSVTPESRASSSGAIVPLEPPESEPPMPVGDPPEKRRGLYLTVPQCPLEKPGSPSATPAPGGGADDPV

Data set [2] addresses Voltage-dependent L-type calcium channel subunit alpha-1C (Homo sapiens, UniProt Q13936). The data set is described as follows: Inhibition of recombinant Cav1.2 channel (unknown origin) expressed in HEK293 cells assessed as effect on calcium flux incubated for 3 mins by FLIPR assay. The class given is cell-based.
The next data set concerns Heart. The data set is described as follows: Increase in coronary flow in Wistar rat Langendorff isolated perfused heart. The class given is functional, tissue-based.
Data set [3] has as its target T1, Cytochrome P450 3A4 (Homo sapiens, UniProt P08684). Description: Inhibition of CYP3A4 in human liver microsomes assessed as reduction in testosterone 6beta-hydroxylation by LC-MS/MS method. The format is ADME.
Data set [4] deals with T1, Cytochrome P450 3A4. The data set is described as follows: Inhibition of CYP3A4 in human liver microsomes assessed as reduction in midazolam 1'-hydroxylation by LC-MS/MS method. The class given is ADME. For orientation: Liver microsomes are a subcellular fraction often used to study metabolism.
Data set [5] concerns the target T1, Cytochrome P450 3A4. Description: Time dependent inhibition of CYP3A4 in human liver microsomes assessed as reduction in testosterone 6beta-hydroxylation incubated for 60 mins in presence of NADPH generating system by LC-MS/MS method. The format is ADME.
The target of another data set is Cytochrome P450 2D6 (Homo sapiens, UniProt P10635). Description: Inhibition of CYP2D6 in human liver microsomes assessed as reduction in dextromethorphan-O demethylation by LC-MS/MS method. The format is ADME.
Another data set concerns the target Cytochrome P450 2C9 (Homo sapiens, UniProt P11712). Description: Inhibition of CYP2C9 in human liver microsomes assessed as reduction in diclofenac 4'-hydroxylation by LC-MS/MS method. The class given is ADME.
Data set [6] deals with Voltage-gated inwardly rectifying potassium channel KCNH2 (Homo sapiens, UniProt Q12809). The data set is described as follows: Inhibition of human ERG expressed in HEK cells by patch clamp assay. In general terms: In patch-clamp work, channel activity is measured electrically.
Data set [7] in a line: AUC in Wistar rat at 10 mg/kg, po. The conditions noted are these: in vivo. The class given is ADME, organism-based.
Data set [8] is described as follows: Cmax in Wistar rat at 10 mg/kg, po. The settings on record: in vivo. The class given is ADME, organism-based. Details: dose 10 mg/kg, route oral.
The nature of data set [9]: Half life in Wistar rat at 10 mg/kg, po or 1 mg/kg, iv. The format is ADME, organism-based. The settings on record: in vivo.
Data set [10] in a line: Clearance in Wistar rat at 10 mg/kg, po or 1 mg/kg, iv. The format is ADME, organism-based. The settings on record: in vivo.
Data set [11] in a line: Volume of distribution at steady state in Wistar rat at 10 mg/kg, po or 1 mg/kg, iv. The format is ADME, organism-based. The conditions noted are these: in vivo, read-out: Vdss.
Data set [12] is described as follows: Oral bioavailability in Wistar rat at 10 mg/kg. The class given is ADME, organism-based. The settings on record: in vivo.
Data set [13] is described as follows: Protein binding in human plasma. The class given is ADME, cell-free. The settings on record: read-out: PPB.
The nature of data set [14]: Protein binding in rat plasma. The class given is ADME, cell-free. The settings on record: read-out: PPB (converted).
The nature of data set [15]: Distribution coefficient, log D of the compound at pH 7.4. The format is physicochemical. The settings on record: octanol/water.
Data set [16] can be described thus: Solubility in Water at pH 4. The format is physicochemical.
A short description of data set [17]: Solubility in 0.1M HCl. The class given is physicochemical.
Data set [18] can be described thus: Solubility in pH 7.0 buffer. The class given is physicochemical.
Data set [19] concerns Rattus norvegicus. The data set is described as follows: Antihypertensive activity in freely moving conscious spontaneously hypertensive rat at assessed as reduction in mean arterial pressure at 10 mg/kg, po administered as single dose in morning at end of wake phase measured after 6 hrs by telemetry. The class given is functional, Artery.
In data set [20] the test system is Rattus norvegicus. The data set is described as follows: Antihypertensive activity in freely moving conscious spontaneously hypertensive rat at assessed as area between curve for reduction in mean arterial pressure at 10 mg/kg, po administered as single dose in morning at end of wake phase by telemetry. The class given is functional, Artery.
The test system of data set [21] is Rattus norvegicus. Description: Antihypertensive activity in freely moving conscious spontaneously hypertensive rat at assessed as time duration for reduction in mean arterial pressure at 10 mg/kg, po administered as single dose in morning at end of wake phase by telemetry. The format is functional, Artery.
The mark [22] stands for this setting: Rattus norvegicus, Wistar, Heart.

Converted amounts (≈) assume the structure as drawn. A value given as a limit tells only on which side of the number the result lay.

T1 sequence (P08684 whole entry): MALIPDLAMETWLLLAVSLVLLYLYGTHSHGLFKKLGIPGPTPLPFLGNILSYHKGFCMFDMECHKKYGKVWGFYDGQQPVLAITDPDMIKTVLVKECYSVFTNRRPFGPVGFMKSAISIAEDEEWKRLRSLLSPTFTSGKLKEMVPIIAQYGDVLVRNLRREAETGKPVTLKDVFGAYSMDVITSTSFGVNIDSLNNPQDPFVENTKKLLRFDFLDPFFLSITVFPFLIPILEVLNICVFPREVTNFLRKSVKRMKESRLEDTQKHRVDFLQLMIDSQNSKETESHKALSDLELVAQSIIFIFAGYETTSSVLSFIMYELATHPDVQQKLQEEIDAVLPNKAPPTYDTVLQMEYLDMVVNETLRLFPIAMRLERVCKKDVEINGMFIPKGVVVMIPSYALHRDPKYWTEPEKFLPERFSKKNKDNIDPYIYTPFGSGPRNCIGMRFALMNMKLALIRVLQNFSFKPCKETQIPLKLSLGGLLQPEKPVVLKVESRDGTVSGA
Sequence of Voltage-dependent L-type calcium channel subunit alpha-1C (Q13936 whole entry, the tested form may be a part): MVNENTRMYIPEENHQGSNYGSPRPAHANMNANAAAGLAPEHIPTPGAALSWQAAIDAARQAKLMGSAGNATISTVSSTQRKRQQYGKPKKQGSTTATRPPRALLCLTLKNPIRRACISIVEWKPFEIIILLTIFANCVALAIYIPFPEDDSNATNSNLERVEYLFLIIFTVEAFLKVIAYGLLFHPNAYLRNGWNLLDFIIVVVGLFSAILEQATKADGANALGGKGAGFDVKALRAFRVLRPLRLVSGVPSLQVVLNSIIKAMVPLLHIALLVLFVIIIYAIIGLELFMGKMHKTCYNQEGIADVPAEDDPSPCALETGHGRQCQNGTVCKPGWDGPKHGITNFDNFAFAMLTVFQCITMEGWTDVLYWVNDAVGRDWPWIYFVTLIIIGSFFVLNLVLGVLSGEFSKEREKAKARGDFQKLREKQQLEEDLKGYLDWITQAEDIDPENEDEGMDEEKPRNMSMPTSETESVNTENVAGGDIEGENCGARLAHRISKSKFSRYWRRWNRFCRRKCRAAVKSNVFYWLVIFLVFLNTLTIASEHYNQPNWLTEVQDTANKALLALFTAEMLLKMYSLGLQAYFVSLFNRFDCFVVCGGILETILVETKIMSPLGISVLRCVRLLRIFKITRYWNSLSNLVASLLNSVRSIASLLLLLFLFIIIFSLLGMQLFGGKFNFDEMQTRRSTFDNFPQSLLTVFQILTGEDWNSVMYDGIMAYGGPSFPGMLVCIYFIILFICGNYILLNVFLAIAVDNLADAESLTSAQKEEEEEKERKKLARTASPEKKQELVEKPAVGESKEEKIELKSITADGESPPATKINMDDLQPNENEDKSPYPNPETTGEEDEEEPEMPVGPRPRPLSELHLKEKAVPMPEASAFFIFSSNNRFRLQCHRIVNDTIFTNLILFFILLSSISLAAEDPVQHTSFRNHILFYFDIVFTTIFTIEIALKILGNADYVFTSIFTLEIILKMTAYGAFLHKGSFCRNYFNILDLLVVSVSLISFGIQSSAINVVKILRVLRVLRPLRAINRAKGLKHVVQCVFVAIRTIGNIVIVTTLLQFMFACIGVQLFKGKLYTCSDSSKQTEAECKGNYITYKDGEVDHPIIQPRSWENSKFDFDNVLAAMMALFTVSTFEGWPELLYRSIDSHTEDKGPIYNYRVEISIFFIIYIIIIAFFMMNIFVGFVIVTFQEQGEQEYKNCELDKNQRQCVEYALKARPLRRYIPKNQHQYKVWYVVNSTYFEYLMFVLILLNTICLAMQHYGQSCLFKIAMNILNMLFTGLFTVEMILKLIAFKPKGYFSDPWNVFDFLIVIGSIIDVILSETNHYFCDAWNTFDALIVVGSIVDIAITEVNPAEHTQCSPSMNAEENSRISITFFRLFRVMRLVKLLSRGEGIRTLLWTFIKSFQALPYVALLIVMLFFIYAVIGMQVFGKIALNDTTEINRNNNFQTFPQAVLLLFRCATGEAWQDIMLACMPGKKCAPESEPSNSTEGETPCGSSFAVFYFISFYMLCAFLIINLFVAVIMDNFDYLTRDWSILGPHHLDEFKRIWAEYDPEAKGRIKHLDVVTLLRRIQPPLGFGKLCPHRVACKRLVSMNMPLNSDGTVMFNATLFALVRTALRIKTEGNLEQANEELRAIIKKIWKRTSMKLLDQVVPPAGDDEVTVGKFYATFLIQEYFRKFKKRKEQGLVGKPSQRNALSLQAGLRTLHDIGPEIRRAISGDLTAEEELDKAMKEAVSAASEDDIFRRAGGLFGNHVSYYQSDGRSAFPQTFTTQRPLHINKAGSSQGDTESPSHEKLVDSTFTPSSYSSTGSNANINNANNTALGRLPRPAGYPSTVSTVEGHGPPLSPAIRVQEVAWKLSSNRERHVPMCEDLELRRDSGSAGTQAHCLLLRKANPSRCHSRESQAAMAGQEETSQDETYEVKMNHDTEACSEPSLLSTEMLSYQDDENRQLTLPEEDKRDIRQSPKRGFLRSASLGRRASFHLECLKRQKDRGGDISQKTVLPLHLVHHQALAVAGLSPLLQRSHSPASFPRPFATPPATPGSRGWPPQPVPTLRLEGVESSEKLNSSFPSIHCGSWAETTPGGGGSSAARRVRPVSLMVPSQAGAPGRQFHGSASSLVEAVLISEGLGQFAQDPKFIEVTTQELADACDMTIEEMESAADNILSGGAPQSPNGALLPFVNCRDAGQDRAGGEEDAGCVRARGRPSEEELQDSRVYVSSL

The term IC50 denotes the concentration that gives 50% inhibition. For orientation: EC50 means the midpoint of the concentration-response curve. High values mean lower potency in that assay, low ones higher potency in that assay. In the case of `CC(C)C(=O)O[C@]1(CCN(C)CCCc2nc3ccccc3[nH]2)C[C@@H]2CCC[C@H]1c1ccccc12`, the IC50 is 225 nM in data set [1] and 648 nM in [2]. The compound further gave an EC50 in the data set with Heart (setting [22]) of 26 nM.
A word on the AUC: it is concentration integrated over time. By Cmax is commonly meant the peak of the concentration-time curve. The term half-life denotes the time needed for the level to fall by half in the phase considered. High values mean slow loss, low ones fast loss. As a reminder, the bioavailability is the share of a dose that reaches the circulation, judged against a reference dose that is usually intravenous. Low values mean little systemic uptake, high ones much systemic uptake. One may read the logD as the decadic logarithm of the distribution of all forms, ionised or not, between an organic phase and buffer at a given pH. Read a low logD as lower lipophilicity. What is called solubility is how much of the substance goes into solution per volume. A higher solubility goes with much dissolved substance. Consider `COc1cccc2nc(CCCN(C)CC[C@]3(OC(=O)C(C)C)C[C@H]4CCC[C@@H]3c3ccccc34)[nH]c12`, for which the concentration for half-maximal inhibition (IC50) worked out at 84 nM in data set [1]; 387 nM in data set [2]; 5500 nM at Cytochrome P450 3A4 [3]; 3000 nM on Cytochrome P450 3A4 [4]; 34000 nM on Cytochrome P450 3A4 [5]; 1400 nM on Cytochrome P450 2D6. The half-inhibitory concentration (IC50) on Cytochrome P450 2C9 is 32000 nM; in data set [6], less than 400 nM. In the data set with Heart (setting [22]), the response was half-maximal at 7 nM (EC50). The compound further yielded an AUC in data set [7] of 198 ng·h/mL. The peak level in data set [8] (Cmax) was 64 ng/mL. For the same compound, the half-life in [9] is 2.2 h. For the same compound, the clearance in [10] came out at 58 mL/min/kg. Further, the Vd in data set [11] stood at 7.1 L/kg. The bioavailability in data set [12] is 7%. In addition, the fraction unbound in data set [13] was less than 0.001; in [14], 0.002. The compound also yielded a logD in data set [15] of 2.7. Also, the solubility was determined as 734 µg/mL (≈ 1460 µM) in data set [16], 681 µg/mL (≈ 1350 µM) in [17] and 119 µg/mL (≈ 236 µM) in [18]. In addition, the Activity in the data set on Rattus norvegicus [19] amounted to 35 mmHg. In addition, in the data set on Rattus norvegicus [20], the ABC was determined as 377 mmHg.hr. For the same compound, in the data set on Rattus norvegicus [21], the Time was 24 h.
Compound `COCC(=O)O[C@]1(CCN(C)CCCc2nc3ccccc3[nH]2)CCc2cc(F)ccc2[C@@H]1C(C)C` [MIBEFRADIL] displayed an EC50 in the data set on Heart (setting [22]) of 26 nM. Besides, in the data set on Rattus norvegicus [19], the Activity stood at 32 mmHg. Further, in the data set on Rattus norvegicus [20], the ABC was 437 mmHg.hr.
As to `CC(C)C(=O)O[C@]1(CCN(C)CCCc2nc3ccccc3[nH]2)C[C@@H]2CCC[C@H]1c1ccccc12` (racemic), the half-inhibitory concentration (IC50) was 217 nM in data set [1] and 437 nM in data set [2]. This compound also registered an EC50 with Heart of 39 nM.
For the compound `CO[C@]1(CCN(C)CCCc2nc3ccccc3[nH]2)C[C@@H]2CC[C@H]1c1ccccc12` (racemic), the concentration for half-maximal inhibition (IC50) came to 224 nM in data set [1] and 2670 nM in data set [2]. The half-maximal effective concentration (EC50) in the data set on Heart (setting [22]) was more than 300 nM.
As to `CC(C)C(=O)O[C@@]1(CCN(C)CCCc2nc3ccccc3[nH]2)C[C@H]2CCC[C@@H]1c1ccccc12`, the IC50 in data set [1] is 184 nM; in data set [2] it was 455 nM. This compound also yielded a concentration for a half-maximal effect (EC50) in the data set with Heart (setting [22]) of 22 nM.
The corresponding values for `CC(C)C(=O)O[C@@]1(CCN(C)CCCc2nc3ccccc3[nH]2)C[C@H]2CC[C@@H]1c1ccccc12` are 398 nM, 424 nM and 26 nM.
As to `CC(C)C(=O)O[C@]1(CCN(C)CCCc2nc3ccccc3[nH]2)C[C@@H]2CC[C@H]1c1nccnc12` (racemic), the IC50 in data set [1] was 2070 nM; in data set [2] it was more than 4600 nM. Moreover, in the data set with Heart (setting [22]), the 50% effective concentration (EC50) was more than 1000 nM.
Turning to `CC(C)C(=O)O[C@]1(CCN(C)CCCc2nc3ccccc3[nH]2)C[C@H](OCc2ccccc2)c2cc(F)ccc2[C@@H]1C(C)C`, the half-inhibitory concentration (IC50) in data set [1] worked out at 113 nM; in [2], 225 nM. Besides, a half-maximal response with Heart (setting [22]) (EC50) required 16 nM.
The corresponding values for `CO[C@H]1C[C@@](CCN(C)CCCc2nc3ccccc3[nH]2)(OC(=O)C(C)C)[C@@H](C(C)C)c2ccc(F)cc21` are 318 nM, 403 nM and 40 nM.
As for `CCCC[C@@H]1C[C@@](CCN(C)CCCc2nc3ccccc3[nH]2)(OC(=O)COC)[C@@H](C(C)C)c2ccc(F)cc21`, the 50% inhibitory concentration (IC50) in data set [1] is 193 nM; in data set [2], 173 nM. The compound further came in with a concentration for a half-maximal effect (EC50) in the data set on Heart (setting [22]) of 23 nM.
Take `CC(C)C(=O)O[C@]1(CCN(C)CCCc2nc3ccccc3[nH]2)C[C@@H]2CC[C@H]1c1ccccc12`: the half-inhibitory concentration (IC50) was 350 nM in [1] and 699 nM in data set [2]. The concentration for a half-maximal effect (EC50) with Heart is more than 150 nM.
Regarding `CC(C)C(=O)O[C@]1(CCN(C)CCCc2nc3ccccc3[nH]2)C[C@@H](O)c2cc(F)ccc2[C@@H]1C(C)C`, the IC50 was determined as 107 nM in data set [1] and 504 nM in data set [2]. For the same compound, it took 134 nM to reach a half-maximal effect in the data set on Heart (setting [22]) (EC50).
The corresponding values for `CC(C)C(=O)O[C@]1(CCN(C)CCCc2nc3ccccc3[nH]2)CCc2cc(F)ccc2[C@@H]1C(C)C` are 149 nM, 347 nM and 20 nM.
Consider `CC(C)C(=O)O[C@]1(CCN(C)CCCc2nc3ccccc3[nH]2)C[C@@H](OCc2ccccc2)c2cc(F)ccc2[C@@H]1C(C)C`, for which the 50% inhibitory concentration (IC50) in [1] turned out to be 132 nM; in data set [2], 156 nM. This compound yielded an EC50 in the data set on Heart (setting [22]) of 20 nM.
The corresponding values for `COCC(=O)O[C@]1(CCN(C)CCCc2nc3ccccc3[nH]2)C[C@@H]2CC[C@H]1c1ccccc12` (racemic) are 361 nM, 748 nM and 250 nM.
For `COCC(=O)O[C@]1(CCN(C)CCCc2nc3ccccc3[nH]2)CC(C)(C)c2cc(F)ccc2[C@@H]1C(C)C`, the results for the IC50 in [1] and in data set [2] were 207 nM and 434 nM, respectively.
Regarding `CO[C@@H]1C[C@@](CCN(C)CCCc2nc3ccccc3[nH]2)(OC(=O)C(C)C)[C@@H](C(C)C)c2ccc(F)cc21`, the IC50 was found to be 557 nM in data set [1] and 588 nM in [2]. The same compound returned an EC50 with Heart (setting [22]) of 29 nM.
Consider `CC(C)C(=O)O[C@]1(CCN(C)CCCc2nc3ccccc3[nH]2)C[C@@H]2CC[C@H]1c1ccccc12` (racemic), for which the IC50 in data set [1] was determined as 432 nM; in data set [2], 533 nM. The compound also showed an EC50 in the data set with Heart of 42 nM.
On to `CC(C)C(=O)O[C@]1(CCN(C)CCCc2nc3ccccc3[nH]2)C[C@H](O)c2cc(F)ccc2[C@@H]1C(C)C`, for which the figures for the IC50 in data set [1] and in [2] were 76 nM and 426 nM, respectively. In addition, a half-maximal effect with Heart (setting [22]) (EC50) was put at 38 nM.
In the case of `CN(CCCc1nc2ccccc2[nH]1)CC[C@@]1(OC(=O)C2CC2)C[C@@H]2CC[C@H]1c1ccccc12` (racemic), the concentration for half-maximal inhibition (IC50) was determined as 210 nM in data set [1] and 140 nM in [2]. In the data set on Heart (setting [22]), this compound displayed a half-maximal effective concentration (EC50) of 77 nM.
